For 18 compounds, response rating results are on record in patent US4383113A, “Agricultural sulfonamides” (E. I. Du Pont de Nemours and Company, priority 1981, dated 1983).

What all share (design): key: 0 = no effect, 10 = maximum effect; letter = response symbol
Experiment [1] deals with morningglory. Kind of experiment: Test A pre-emergence. The class given is in vivo, Ipomoea spp. An excerpt: (§1) The activity of these compounds was discovered in a number of greenhouse and field tests. The ratings are based on a numerical scale extending from 0=no effect, to 10=maximum effect. The accompanying descriptive symbols have the following meanings:
(§2) Seeds of crabgrass (Digitaria spp.), barnyardgrass (Echinochloa crusgalli), wild oats (Avena fatua), cassia (Cassia tora), morningglory (Ipomoea spp.), cocklebur (Xanthium spp.), sorghum, corn, soybean, rice, wheat and nutsedge tubers (Cyperus rotundus) were planted in a growth medium and treated preemergence with a nonphytotoxic solvent solution of the compounds of Table XII. Other batches of seeds and tubers for all of the foregoing weed and crop plants were planted at the same time as controls. The control plantings were untreated; i.e., neither any compound nor any solvent was applied. At the same time, cotton having five leaves (including cotyledonary ones), bush beans with the third trifoliate leaf expanding, crabgrass with two leaves, barnyardgrass with two leaves, wild oats with two leaves, cassia with three leaves (including cotyledonary ones), morningglory with four leaves (including the cotyledonary ones), cocklebur with four leaves (including the cotyledonary ones), sorghum with four leaves, corn with four leaves, soybean with two cotyledonary leaves, rice with three leaves, wheat with one leaf, and nutsedge with three-five leaves were sprayed with a nonphytotoxic solvent solution of the compounds of Table XII. Other groups of all the same weed and crop plants were sprayed with the same nonphytotoxic solvent so as to provide control plants. Preemergence and postemergence treated plants and controls were maintained in a greenhouse for sixteen days, then all treated plants were compared with their respective controls and rated visually for response to treatment.

The subject of experiment [2] is crabgrass. The experiment can be described thus: Test A pre-emergence. The class given is in vivo, Digitaria spp.
From the text: as §1, §2

Experiment [3] has as its system wild oats. The experiment can be described thus: Test A pre-emergence. The class given is in vivo, Avena fatua. The following applies: 0.4 kg/ha.
From the text: as §1, §2

The test system of experiment [4] is wheat. The experiment can be described thus: Test A pre-emergence. In kind it is in vivo.
From the text: as §1, §2

In experiment [5] the test system is morningglory. Kind of experiment: Test A post-emergence. The class given is in vivo, Ipomoea spp. The conditions noted are these: 0.4 kg/ha.
From the text: as §1, §2

Experiment [6] concerns cocklebur. The experiment can be described thus: Test A post-emergence. The conditions noted are these: 0.4 kg/ha. The class given is in vivo, Xanthium spp.
From the text: as §1, §2

Experiment [7] concerns nutsedge. Kind of experiment: Test A post-emergence. The class given is in vivo, Cyperus rotundus. The conditions noted are these: 0.4 kg/ha.
From the text: as §1, §2

Experiment [8] has as its system crabgrass. Kind of experiment: Test A post-emergence. The following applies: 0.4 kg/ha. The class given is in vivo, Digitaria spp.
From the text: as §1, §2

Experiment [9] concerns barnyardgrass. Kind of experiment: Test A post-emergence. The class given is in vivo, Echinochloa crusgalli. The conditions noted are these: 0.4 kg/ha.
From the text: as §1, §2

Experiment [10] deals with wild oats. The experiment can be described thus: Test A post-emergence. The following applies: 0.4 kg/ha. In kind it is in vivo, Avena fatua.
From the text: as §1, §2

For experiment [11], the system named is corn. The experiment can be described thus: Test A post-emergence. The conditions noted are these: 0.4 kg/ha. In kind it is in vivo.
From the text: as §1, §2

Experiment [12] deals with sorghum. Kind of experiment: Test A post-emergence. In kind it is in vivo. The following applies: 0.4 kg/ha.
From the text: as §1, §2

Experiment [13] has as its system wheat. Kind of experiment: Test A post-emergence. In kind it is in vivo. The following applies: 0.4 kg/ha.
From the text: as §1, §2

The test system of experiment [14] is cocklebur. The experiment can be described thus: Test A pre-emergence. In kind it is in vivo, Xanthium spp.
From the text: as §1, §2

Experiment [15] has as its system cassia. Kind of experiment: Test A pre-emergence. In kind it is in vivo, Cassia tora.
From the text: as §1, §2

Experiment [16] deals with barnyardgrass. The experiment can be described thus: Test A pre-emergence. In kind it is in vivo, Echinochloa crusgalli.
From the text: as §1, §2

The test system of experiment [17] is sorghum. Kind of experiment: Test A pre-emergence. In kind it is in vivo.
From the text: as §1, §2

Experiment [18] deals with soybean. Kind of experiment: Test A pre-emergence. The class given is in vivo.
From the text: as §1, §2

For experiment [19], the system named is soybean. Kind of experiment: Test A post-emergence. The class given is in vivo. The following applies: 0.4 kg/ha.
From the text: as §1, §2

Experiment [20] relates to cassia. The experiment can be described thus: Test A post-emergence. The class given is in vivo, Cassia tora. The following applies: 0.4 kg/ha.
From the text: as §1, §2

For `COc1cc(OC)nc(NC(=O)NS(=O)(=O)c2ccccc2C(=O)OC(C)C)n1` [drawing 503], the response rating in experiment [1] (0.4 kg/ha) is 9G; in [2] (0.4 kg/ha) it was 8G; in experiment [3], 7G; in [4] (0.4 kg/ha) it was 7G.
In the case of `COC(=O)c1cc(Cl)ccc1S(=O)(=O)NC(=O)Nc1nc(OC)nc(OC)n1` [drawing 435], the response rating in [5] came out at 10C; in [6], 10C; in experiment [7], 10C; in experiment [8], 1C; in [9], 3G; in [10], 0. Moreover, the response rating came out at 9H in experiment [11], 8H in experiment [12] and 0 in experiment [13].
Take `C=CCOC(=O)c1ccccc1S(=O)(=O)NC(=O)Nc1nc(C)nc(OC)n1` [drawing 518]: the response rating in experiment [1] (0.4 kg/ha) worked out at 9G; in experiment [14] (0.4 kg/ha), 9G; in [15] (0.4 kg/ha) it was 9G; in experiment [2] (0.4 kg/ha) it was 9H; in experiment [16] (0.4 kg/ha), 9H; in [17] (0.4 kg/ha), 10H. The response rating in [18] (0.4 kg/ha) and in experiment [4] (0.4 kg/ha) was 9H throughout.
Take `COc1cc(OC)nc(NC(=O)NS(=O)(=O)c2ccccc2C(=O)OCCCl)n1` [drawing 487]: the response rating is given as 9G in experiment [1] (0.4 kg/ha); 9G in experiment [14] (0.4 kg/ha); 9H in experiment [16] (0.4 kg/ha); 9G in experiment [3]; 9H in [17] (0.4 kg/ha); 9H in experiment [18] (0.4 kg/ha). This compound yielded a response rating in experiment [4] (0.4 kg/ha) of 9G.
Regarding `CCCCCCCCCCCCNC(=O)c1ccccc1S(=O)(=O)NC(=O)Nc1nc(C)nc(OC)n1` [drawing 467], the response rating in [5] amounted to 9C; in experiment [7], 9G; in experiment [19], 9C.
Turning to `COc1cc(C)nc(NC(=O)NS(=O)(=O)c2ccccc2C(=O)OC(C)C)n1` [drawing 504], the response rating is listed as 9H in experiment [1] (0.4 kg/ha), 8G in experiment [2] (0.4 kg/ha), 8G in experiment [3] and 9G in [4] (0.4 kg/ha).
Turning to `COc1cc(C)nc(NC(=O)NS(=O)(=O)c2ccccc2C(=O)NCc2ccccc2)n1` [drawing 531], the response rating stood at 9G in [1] (0.4 kg/ha); 8G in [14] (0.4 kg/ha); 9G in experiment [15] (0.4 kg/ha); 9H in experiment [16] (0.4 kg/ha); 3C in experiment [3]; 9H in [18] (0.4 kg/ha). Moreover, in [4] (0.4 kg/ha), the response rating was 9H.
Regarding `COc1nc(NC(=O)NS(=O)(=O)c2ccccc2C(=O)OC(C)C)nc(OC)n1` [drawing 505], the response rating came to 7G in experiment [2] (0.4 kg/ha), 8G in [3] and 7G in experiment [4] (0.4 kg/ha).
Consider `COc1cc(OC)nc(NC(=O)NS(=O)(=O)c2ccccc2C(=O)OC2CCCCC2)n1` [drawing 431], for which the response rating in experiment [5] came out at 9C; in experiment [6], 9C; in experiment [20], 1C; in experiment [11] it was 7H; in [12], 8H; in experiment [13], 1C.
As for `COC(=O)c1ccccc1S(=O)(=O)NC(=O)Nc1nc(OC)nc(OCC(F)(F)F)n1` [drawing 540], the response rating in experiment [1] (0.4 kg/ha) amounted to 9G; in experiment [14] (0.4 kg/ha), 9G; in [15] (0.4 kg/ha), 9G; in experiment [2] (0.4 kg/ha) it was 2G; in [18] (0.4 kg/ha), 9H; in experiment [4] (0.4 kg/ha), 6G.
`CCC(C)OC(=O)c1ccccc1S(=O)(=O)NC(=O)Nc1nc(OC)cc(OC)n1` (stereo not drawn) [drawing 490]: the response rating in experiment [1] (0.4 kg/ha) amounted to 9G; in experiment [14] (0.4 kg/ha), 9G; in [15] (0.4 kg/ha), 8G; in [2] (0.4 kg/ha) it was 0; in [16] (0.4 kg/ha), 9H; in experiment [3], 8G. Moreover, the response rating in experiment [17] (0.4 kg/ha) is reported as 9G; in [18] (0.4 kg/ha), 8H; in [4] (0.4 kg/ha), 2G.
Regarding `COC(=O)c1ccccc1S(=O)(=O)NC(=O)Nc1nc(C)nc(OC)n1` [drawing 482], the response rating is 9H in [1] (0.4 kg/ha); 9G in experiment [14] (0.4 kg/ha); 9G in experiment [15] (0.4 kg/ha); 9H in experiment [16] (0.4 kg/ha); 9H in experiment [3]; 9H in experiment [17] (0.4 kg/ha). Moreover, the response rating in experiment [18] (0.4 kg/ha) and in [4] (0.4 kg/ha) was 9H throughout.
With `COC(=O)c1cc(Cl)ccc1S(=O)(=O)NC(=O)Nc1nc(C)cc(OC)n1` [drawing 501], the response rating is given as 9G in experiment [1] (0.4 kg/ha); 9H in [14] (0.4 kg/ha); 9H in experiment [16] (0.4 kg/ha); 9G in experiment [3]; 9H in experiment [17] (0.4 kg/ha); 9H in experiment [18] (0.4 kg/ha). Also, the response rating in experiment [4] (0.4 kg/ha) amounted to 8H.
As for `CCOC(=O)c1ccccc1S(=O)(=O)NC(=O)Nc1nc(OC)cc(OC)n1` [drawing 508], the response rating in experiment [14] (2 kg/ha) is recorded as 9G; in experiment [15] (2 kg/ha), 9G; in [2] (2 kg/ha) it was 9H; in experiment [16] (2 kg/ha), 9H; in experiment [17] (2 kg/ha), 10H; in experiment [18] (2 kg/ha) it was 9H. Also, the response rating in experiment [4] (2 kg/ha) turned out to be 9H.
For `COC(=O)c1ccccc1S(=O)(=O)NC(=O)Nc1nc(C)cc(C)n1` [drawing 479], the response rating in experiment [1] (0.4 kg/ha) came to 9G; in [1] (2 kg/ha), 9G; in [14] (0.4 kg/ha), 9G; in [14] (2 kg/ha) it was 9G; in experiment [15] (0.4 kg/ha), 8G; in experiment [15] (2 kg/ha), 9G. The response rating is on record as 9G in experiment [2] (0.4 kg/ha); 9G in experiment [2] (2 kg/ha); 9H in experiment [16] (0.4 kg/ha); 9H in experiment [16] (2 kg/ha); 9H in [18] (0.4 kg/ha); 9H in experiment [18] (2 kg/ha). Besides, the response rating in experiment [4] (0.4 kg/ha) and in experiment [4] (2 kg/ha) was 9H each time.
For the compound `COC(=O)c1cc(Cl)ccc1S(=O)(=O)NC(=O)Nc1nc(OC)nc(OC)n1` [drawing 502], the response rating was 9G in [1] (0.4 kg/ha); 9G in experiment [14] (0.4 kg/ha); 1C in experiment [2] (0.4 kg/ha); 8G in experiment [3]; 9H in experiment [17] (0.4 kg/ha); 9H in [18] (0.4 kg/ha). In [4] (0.4 kg/ha), this compound came in with a response rating of 1C.
As for `CCC(C)OC(=O)c1ccccc1S(=O)(=O)NC(=O)Nc1nc(C)cc(OC)n1` (stereo not drawn) [drawing 491], the response rating in experiment [1] (0.4 kg/ha) is 9G; in [15] (0.4 kg/ha), 9G; in experiment [2] (0.4 kg/ha) it was 6G; in [16] (0.4 kg/ha) it was 9H; in [17] (0.4 kg/ha) it was 9H; in experiment [18] (0.4 kg/ha) it was 9H. The compound also returned a response rating in experiment [4] (0.4 kg/ha) of 9G.
Consider `CCOC(=O)c1ccccc1S(=O)(=O)NC(=O)Nc1nc(OC)cc(OC)n1` [drawing 509], for which the response rating is reported as 9G in experiment [14] (0.4 kg/ha); 9G in experiment [15] (0.4 kg/ha); 9H in experiment [16] (0.4 kg/ha); 9G in [3]; 9H in experiment [17] (0.4 kg/ha); 9H in [18] (0.4 kg/ha). In [4] (0.4 kg/ha), this compound showed a response rating of 9H.
